The source of these data is patent US20080132536A1, “PYRAZOLO [3,4-B] PYRIDINE COMPOUNDS, AND THEIR USE AS PDE4 INHIBITORS” (Glaxo Group Limited, priority 2003, published 2008).

Each structure is given as a SMILES string.

T1 sequence (Q07343 1-564 isoform Q07343-2): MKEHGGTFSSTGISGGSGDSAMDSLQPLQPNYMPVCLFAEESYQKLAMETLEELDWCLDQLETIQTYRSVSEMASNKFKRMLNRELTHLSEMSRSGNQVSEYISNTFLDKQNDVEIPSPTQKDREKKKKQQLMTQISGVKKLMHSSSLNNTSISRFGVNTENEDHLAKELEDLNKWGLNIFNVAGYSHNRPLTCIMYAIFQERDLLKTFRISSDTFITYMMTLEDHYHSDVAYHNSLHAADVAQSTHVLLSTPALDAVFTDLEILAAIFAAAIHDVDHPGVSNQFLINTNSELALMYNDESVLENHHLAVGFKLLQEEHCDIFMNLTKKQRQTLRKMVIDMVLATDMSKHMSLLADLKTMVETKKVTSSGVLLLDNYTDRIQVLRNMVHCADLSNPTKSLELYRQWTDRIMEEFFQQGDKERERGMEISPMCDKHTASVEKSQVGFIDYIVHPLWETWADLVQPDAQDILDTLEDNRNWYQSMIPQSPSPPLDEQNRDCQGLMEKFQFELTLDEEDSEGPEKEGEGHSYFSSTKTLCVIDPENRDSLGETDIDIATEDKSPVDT

One assay addresses T1, PDE4B (human recombinant) (Homo sapiens, UniProt Q07343).
T1 construct: made in house
Briefly: PDE4B inhibition, radioactive SPA and/or IMAP fluorescence polarisation (FP) assay. It counts as biochemical. Particulars: comparators: Examples 6, 7, 29, 26, 64, 126, 124, 170, 177. From the text: Human recombinant PDE4B, in particular the 2B splice variant thereof (HSPDE4B2B), is disclosed in WO 94/20079 and also M. M. McLaughlin et al., “A low Km, rolipram-sensitive, cAMP-specific phosphodiesterase from human brain: cloning and expression of cDNA, biochemical characterisation of recombinant protein, and tissue distribution of mRNA”, J. Biol. Chem., 1993, 268, 6470-6476. For example, in Example 1 of WO 94/20079, human recombinant PDE4B is described as being expressed in the PDE-deficient yeast Saccharomyces cerevisiae strain GL62, e.g. after induction by addition of 150 uM CuSO4, and 100,000×g supernatant fractions of yeast cell lysates are described for use in the harvesting of PDE4B enzyme.
The ability of compounds to inhibit catalytic activity at PDE4B or 4D (human recombinant), PDE3 (from bovine aorta), PDE5 (human recombinant) or PDE6 (from bovine retina) can optionally be determined by Scintillation Proximity Assay (SPA) in 96-well format.
Test compounds (as a solution in DMSO, preferably about 2 microlitre (ul) volume of DMSO solution) are preincubated at ambient temperature (room temperature, e.g. 19-23° C.) in Wallac Isoplates (code 1450-514) with PDE enzyme in 50 mM Tris-HCl buffer pH 7.5, 8.3 mM MgCl2, 1.7 mM EGTA, 0.05% (w/v) bovine serum albumin for 10-30 minutes (usually 30 minutes). The enzyme concentration is adjusted so that no more than 20% hydrolysis of the substrate defined below occurs in control wells without compound, during the incubation. For the PDE3, PDE4B and PDE4D assays, [5′,8-3H]Adenosine 3′,5′-cyclic phosphate (Amersham Pharmacia Biotech, code TRK.559; or Amersham Biosciences UK Ltd, Pollards Wood, Chalfont St Giles, Buckinghamshire HP8 4SP, UK) is added to give 0.05 uCi per well and about 10 nM final concentration. For the PDE5 and PDE6 assays, [8-^3H]Guanosine 3′,5′-cyclic phosphate (Amersham Pharmacia Biotech, code TRK.392) is added to give 0.05 uCi per well and about 36 nM final concentration. Plates containing assay mixture, preferably approx. 100 ul volume of assay mixture, are mixed on an orbital shaker for 5 minutes and incubated at ambient temperature for 1 hour. Phosphodiesterase SPA beads (Amersham Pharmacia Biotech, code RPNQ 0150) are added (about 1 mg per well) to terminate the assay. Plates are sealed and shaken and allowed to stand at ambient temperature for 35 minutes to 1 hour (preferably 35 minutes) to allow the beads to settle. Bound radioactive product is measured using a WALLAC TRILUX 1450 Microbeta scintillation counter. For inhibition curves, 10 concentrations (1.5 nM-30 uM) of each compound are assayed. Curves are analysed using ActivityBase and XLfit (ID Business Solutions Limited, 2 Ocean Court, Surrey Research Park, Guildford, Surrey GU2 7QB, United Kingdom) Results are expressed as pIC50 values.
The ability of compounds to inhibit catalytic activity at PDE4B (human recombinant) or PDE4D (human recombinant) can optionally be determined by IMAP Fluorescence Polarisation (FP) assay (IMAP Explorer kit, available from Molecular Devices Corporation, Sunnydale, Calif., USA; Molecular Devices code: R8062) in 384-well format.
The IMAP FP assay is able to measure PDE activity in an homogenous, non-radioactive assay format. The FP assay uses the ability of immobilised trivalent metal cations, coated onto nanoparticles (tiny beads), to bind the phosphate group of Fl-AMP that is produced on the hydrolysis of fluorescein-labelled (Fl) cyclic adenosine mono-phosphate (Fl-cAMP) to the non-cyclic Fl-AMP form. […] Binding of Fl-AMP product to the beads (coated with the immobilised trivalent cations) slows the rotation of the bound Fl-AMP and leads to an increase in the fluorescence polarisation ratio of parallel to perpendicular light. Inhibition of the PDE reduces/inhibits this signal increase. […]
(Fluorescence polarisation rises when a labelled molecule tumbles more slowly, as on binding a larger partner.)
In the case of `CC[C@@H](NC(=O)c1cnc2c(cnn2CC)c1NC1CCN(C(C)=O)CC1)c1ccccc1` [Example 174, 4-[(1-acetyl-4-piperidinyl)amino]-1-ethyl-N-[(1R)-1-phenylpropyl]-1H-pyrazolo[3,4-b]pyridine-5-carboxamide], the “PDE4B inhibitory activity compared with the comparable Example of opposite stereochemistry at the CR4R5 (benzylic) carbon atom” value is “greater PDE4B inhibitory activity”.
On the same count and under the same terms, in the case of `CCn1ncc2c(NC3CCOCC3)c(C(=O)N[C@H](CO)c3ccccc3)cnc21` [Example 28, 1-ethyl-N-[(1S)-2-hydroxy-1-phenylethyl]-4-(tetrahydro-2H-pyran-4-ylamino)-1H-pyrazolo[3,4-b]pyridine-5-carboxamide] it was “greater PDE4B inhibitory activity”; in that of `CCn1ncc2c(NC3CCOCC3)c(C(=O)N[C@H](C)c3ccccc3)cnc21` [Example 8, 1-ethyl-N-[(1R)-1-phenylethyl]-4-(tetrahydro-2H-pyran-4-ylamino)-1H-pyrazolo[3,4-b]pyridine-5-carboxamide], “greater PDE4B inhibitory activity”.

The assay is the same for the next values; noted with them: one reading or average of several (ca. 2-6) readings; SPA and/or FP assay; range given for a group of Examples; read-out: PDE4B pIC50 (±about 0.5) (converted).
In the case of `CCC(NC(=O)c1cnc2c(cnn2CC)c1NC1CCCC(O)C1)c1ccc(Cl)cc1` [Example 282, N-[1-(4-chlorophenyl)propyl]-1-ethyl-4-{[(1S,3R)-and/or (1R,3S)-3-hydroxycyclohexyl]amino}-1H-pyrazolo[3,4-b]pyridine-5-carboxamide], the IC50 was 0.1 to 2 nM.
Take `CCn1ncc2c(NC3CCCC(O)C3)c(C(=O)NC(C)c3ccc(C)cc3)cnc21` (mixture of isomers) [Example 283, 1-ethyl-4-{[(1S,3R)-and/or (1R,3S)-3-hydroxycyclohexyl]amino}-N-[(1R)-1-(4-methylphenyl)ethyl]-1H-pyrazolo[3,4-b]pyridine-5-carboxamide]: the IC50 is 0.1 to 2 nM.
For `CCn1ncc2c(NC3CCOCC3)c(C(=O)N[C@@H](CO)c3ccccc3)cnc21` [Example 26, 1-ethyl-N-[(1R)-2-hydroxy-1-phenylethyl]-4-(tetrahydro-2H-pyran-4-ylamino)-1H-pyrazolo[3,4-b]pyridine-5-carboxamide], the IC50 is 31.6 to 70.8 nM.
Consider `CCn1ncc2c(NC3CCOCC3)c(C(=O)N[C@H](C)c3cccc4ccccc34)cnc21` [Example 37, 1-ethyl-N-[(1R)-1-(1-naphthalenyl)ethyl]-4-(tetrahydro-2H-pyran-4-ylamino)-1H-pyrazolo[3,4-b]pyridine-5-carboxamide], for which the IC50 is 12.6 to 25.1 nM.
On the same count and under the same terms, under `CCn1ncc2c(N[C@H]3CC[C@H](C(N)=O)CC3)c(C(=O)N[C@H](C)c3ccccc3)cnc21` [Example 358, 4-{[trans-4-(aminocarbonyl)cyclohexyl]amino}-1-ethyl-N-[(1R)-1-phenylethyl]-1H-pyrazolo[3,4-b]pyridine-5-carboxamide] stands 39.8 to 158 nM.
In the case of `CC[C@@H](NC(=O)c1cnc2c(cnn2CC)c1NC1CCC(C(N)=O)CC1)c1ccccc1` (mixture of isomers) [Example 347, 4-{[4-(aminocarbonyl)cyclohexyl]amino}-1-ethyl-N-[(1R)-1-phenylpropyl]-1H-pyrazolo[3,4-b]pyridine-5-carboxamide], the IC50 was 0.501 to 3.16 nM.
In the case of `CCn1ncc2c(NC3CCOCC3)c(C(=O)N[C@H](CO)c3ccccc3)cnc21` [Example 28, 1-ethyl-N-[(1S)-2-hydroxy-1-phenylethyl]-4-(tetrahydro-2H-pyran-4-ylamino)-1H-pyrazolo[3,4-b]pyridine-5-carboxamide], the IC50 is 0.794 to 5.01 nM.
Turning to `CCn1ncc2c(NC3CCCCC3)c(C(=O)N[C@H](C)c3ccc(C)cc3)cnc21` [Example 139, 4-(cyclohexylamino)-1-ethyl-N-[(1R)-1-(4-methylphenyl)ethyl]-1H-pyrazolo[3,4-b]pyridine-5-carboxamide], the IC50 was 0.1 to 2 nM.
Regarding `CCC(NC(=O)c1cnc2c(cnn2CC)c1NC1CCC(=O)CC1)c1ccc(C)cc1` (centres unmarked) [Example 221, 1-ethyl-N-[1-(4-methylphenyl)propyl]-4-[(4-oxocyclohexyl)amino]-1H-pyrazolo[3,4-b]pyridine-5-carboxamide], the IC50 was 0.1 to 2 nM.
As for `CCn1ncc2c(NC3CCOCC3)c(C(=O)NC(C)c3ccc(C)cc3)cnc21` (centres unmarked) [Example 48, 1-ethyl-N-[1-(4-methylphenyl)ethyl]-4-(tetrahydro-2H-pyran-4-ylamino)-1H-pyrazolo[3,4-b]pyridine-5-carboxamide], the IC50 is 0.1 to 2 nM.
Same read-out and setting: under `CCC(NC(=O)c1cnc2c(cnn2CC)c1NC1CCC(C(N)=O)CC1)c1ccc(Cl)cc1` (mixture of isomers) [Example 346, 4-{[4-(aminocarbonyl)cyclohexyl]amino}-N-[1-(4-chlorophenyl)propyl]-1-ethyl-1H-pyrazolo[3,4-b]pyridine-5-carboxamide] stands 0.501 to 3.16 nM; under `CC[C@@H](NC(=O)c1cnc2c(cnn2CC)c1N[C@H]1CC[C@@H](C(N)=O)CC1)c1ccc(C)cc1C` [Example 352, 4-{[cis-4-(aminocarbonyl)cyclohexyl]amino}-N-[(1R)-1-(2,4-dimethylphenyl)propyl]-1-ethyl-1H-pyrazolo[3,4-b]pyridine-5-carboxamide], 0.501 to 3.16 nM; under `CCn1ncc2c(NC3CCC(=O)CC3)c(C(=O)N[C@H](C)c3ccc(C)cc3)cnc21` [Example 191, 1-ethyl-N-[(1R)-1-(4-methylphenyl)ethyl]-4-[(4-oxocyclohexyl)amino]-1H-pyrazolo[3,4-b]pyridine-5-carboxamide], 0.1 to 2 nM.
In the case of `CCn1ncc2c(N[C@H]3CC[C@@H](C(N)=O)CC3)c(C(=O)N[C@H](C)c3ccc(C)cc3)cnc21` [Example 353, 4-{[cis-4-(aminocarbonyl)cyclohexyl]amino}-1-ethyl-N-[(1R)-1-(4-methylphenyl)ethyl]-1H-pyrazolo[3,4-b]pyridine-5-carboxamide], the IC50 was 0.501 to 3.16 nM.
As for `CCn1ncc2c(NC3CCOCC3)c(C(=O)N[C@@H](C)c3ccc(OC)cc3)cnc21` [Example 64, 1-ethyl-N-{(1S)-1-[4-(methyloxy)phenyl]ethyl}-4-(tetrahydro-2H-pyran-4-ylamino)-1H-pyrazolo[3,4-b]pyridine-5-carboxamide], the IC50 is 31.6 to 70.8 nM.
Turning to `CCn1ncc2c(NC3CCOCC3)c(C(=O)N[C@H](C)c3ccccc3)cnc21` [Example 8, 1-ethyl-N-[(1R)-1-phenylethyl]-4-(tetrahydro-2H-pyran-4-ylamino)-1H-pyrazolo[3,4-b]pyridine-5-carboxamide], the IC50 is 0.794 to 5.01 nM.
Regarding `CCC(NC(=O)c1cnc2c(cnn2CC)c1NC1CCC(=O)CC1)c1ccc(C)cc1C` (centres unmarked) [Example 210, N-[1-(2,4-dimethylphenyl)propyl]-1-ethyl-4-[(4-oxocyclohexyl)amino]-1H-pyrazolo[3,4-b]pyridine-5-carboxamide], the IC50 was 0.1 to 2 nM.
With `CCn1ncc2c(NC3CCOCC3)c(C(=O)NC(CCO)c3ccccc3)cnc21` (centres unmarked) [Example 13, 1-ethyl-N-(3-hydroxy-1-phenylpropyl)-4-(tetrahydro-2H-pyran-4-ylamino)-1H-pyrazolo[3,4-b]pyridine-5-carboxamide], the IC50 is 0.794 to 5.01 nM.
The same measure, in the same setting: in the case of `CCC(NC(=O)c1cnc2c(cnn2CC)c1NC1CCC(=NO)CC1)c1ccc(C)cc1` (centres unmarked) [Example 252, 1-ethyl-4-{[4-(hydroxyimino)cyclohexyl]amino}-N-[1-(4-methylphenyl)propyl]-1H-pyrazolo[3,4-b]pyridine-5-carboxamide] it was 0.1 to 2 nM.
For the compound `CCC(NC(=O)c1cnc2c(cnn2CC)c1NC1CCC(=NO)CC1)c1ccc(C)c(C)c1` (centres unmarked) [Example 261, N-[1-(3,4-dimethylphenyl)propyl]-1-ethyl-4-{[4-(hydroxyimino)cyclohexyl]amino}-1H-pyrazolo[3,4-b]pyridine-5-carboxamide], the IC50 is 0.1 to 2 nM.
